Reference: patent publication US11911393B2, “Non-catalytic substrate-selective p38alpha-specific MAPK inhibitors with endothelial-stabilizing and anti-inflammatory activity, and methods of use thereof” (University of Maryland, Baltimore, priority 2016, dated 2024)

Test system: TNFα-induced gene expression in HMVECLs
Experiment: RNASeq of TNFα-induced gene expression
Assay type: cell-based, human
Conditions: 100 μM UM101, 10 μM SB203580

C[S+]([O-])c1ccc(-c2nc(-c3ccncc3)c(-c3ccc(F)cc3)[nH]2)cc1 (stereo not shown) [SB203580, reference compound]
bin (gene expression response pattern) (AC003092.1 (ENSG00000236453)): 7 | bin (gene expression response pattern) (AC010642.2 (ENSG00000269794)): 7 | bin (gene expression response pattern) (AC116366.6 (ENSG00000234290)): 8 | bin (gene expression response pattern) (ADAP1 (ENSG00000105963)): 7 | bin (gene expression response pattern) (ADM2 (ENSG00000128165)): 7 | bin (gene expression response pattern) (ANKRD55 (ENSG00000164512)): 8 | bin (gene expression response pattern) (APOBEC3G (ENSG00000239713)): 7 | bin (gene expression response pattern) (APOL2 (ENSG00000128335)): 7 | bin (gene expression response pattern) (APOL6 (ENSG00000221963)): 7 | bin (gene expression response pattern) (BPGM (ENSG00000172331)): 8 | bin (gene expression response pattern) (C1QTNF1 (ENSG00000173918)): 7 | bin (gene expression response pattern) (C6orf58 (ENSG00000184530)): 7 | bin (gene expression response pattern) (C8orf4 (ENSG00000176907)): 8 | bin (gene expression response pattern) (C11orf88 (ENSG00000183644)): 7 | bin (gene expression response pattern) (C15orf54 (ENSG00000175746)): 8 | bin (gene expression response pattern) (CCL1 (ENSG00000108702)): 7 | bin (gene expression response pattern) (CD40 (ENSG00000101017)): 7 | bin (gene expression response pattern) (CD69 (ENSG00000110848)): 8 | bin (gene expression response pattern) (CDON (ENSG00000064309)): 7 | bin (gene expression response pattern) (CLEC2D (ENSG00000069493)): 7 | bin (gene expression response pattern) (CSF2 (ENSG00000164400)): 8 | bin (gene expression response pattern) (CTC-231O11.1 (ENSG00000253522)): 7 | bin (gene expression response pattern) (CTD-2369P2.8 (ENSG00000267607)): 7 | bin (gene expression response pattern) (CX3CL1 (ENSG00000006210)): 7 | bin (gene expression response pattern) (DRD4 (ENSG00000069696)): 7 | bin (gene expression response pattern) (EBI3 (ENSG00000105246)): 8 | bin (gene expression response pattern) (EGLN3 (ENSG00000129521)): 7 | bin (gene expression response pattern) (ENKUR (ENSG00000151023)): 7 | bin (gene expression response pattern) (ERVFRD-1 (ENSG00000244476)): 8 | bin (gene expression response pattern) (ETV3L (ENSG00000253831)): 7 | bin (gene expression response pattern) (F2RL3 (ENSG00000127533)): 8 | bin (gene expression response pattern) (FAM101A (ENSG00000178882)): 8 | bin (gene expression response pattern) (GCH1 (ENSG00000131979)): 7 | bin (gene expression response pattern) (GPR37L1 (ENSG00000170075)): 7 | bin (gene expression response pattern) (GPR182 (ENSG00000166856)): 7 | bin (gene expression response pattern) (HAND1 (ENSG00000113196)): 8 | bin (gene expression response pattern) (HAS2 (ENSG00000170961)): 8 | bin (gene expression response pattern) (HELZ2 (ENSG00000130589)): 7 | bin (gene expression response pattern) (HEPACAM (ENSG00000165478)): 8 | bin (gene expression response pattern): AC073850.6 (HMVECLs, TNFα): 5 | bin (gene expression response pattern): AGPAT9 (HMVECLs, TNFα): 5 | bin (gene expression response pattern): ARHGAP18 (HMVECLs, TNFα): 5 | bin (gene expression response pattern): ARHGEF28 (HMVECLs, TNFα): 5 | bin (gene expression response pattern): ARL11 (HMVECLs, TNFα): 5 | bin (gene expression response pattern): BAMBI (HMVECLs, TNFα): 1 | bin (gene expression response pattern): BCL2L10 (HMVECLs, TNFα): 5 | bin (gene expression response pattern): BMF (HMVECLs, TNFα): 5 | bin (gene expression response pattern): C2CD4B (HMVECLs, TNFα): 5 | bin (gene expression response pattern): C19orf35 (HMVECLs, TNFα): 5 | bin (gene expression response pattern): CCL17 (HMVECLs, TNFα): 3 | bin (gene expression response pattern): CD200 (HMVECLs, TNFα): 3 | bin (gene expression response pattern): CD207 (HMVECLs, TNFα): 3 | bin (gene expression response pattern): CELF2-AS1 (HMVECLs, TNFα): 5 | bin (gene expression response pattern): CH25H (HMVECLs, TNFα): 5 | bin (gene expression response pattern): CTA-212A2.1 (HMVECLs, TNFα): 3 | bin (gene expression response pattern): CTA-221G9.12 (HMVECLs, TNFα): 5 | bin (gene expression response pattern): CTB-152G17.6 (HMVECLs, TNFα): 5 | bin (gene expression response pattern): CXCL3 (HMVECLs, TNFα): 5 | bin (gene expression response pattern): CXCL5 (HMVECLs, TNFα): 3 | bin (gene expression response pattern): CXCL10 (HMVECLs, TNFα): 3 | bin (gene expression response pattern): CXCL11 (HMVECLs, TNFα): 3 | bin (gene expression response pattern): DLL4 (HMVECLs, TNFα): 1 | bin (gene expression response pattern): ELOVL7 (HMVECLs, TNFα): 3 | bin (gene expression response pattern): EPHX4 (HMVECLs, TNFα): 5 | bin (gene expression response pattern): ETV1 (HMVECLs, TNFα): 1 | bin (gene expression response pattern): EXOC3L4 (HMVECLs, TNFα): 3 | bin (gene expression response pattern): FAM84A (HMVECLs, TNFα): 5 | bin (gene expression response pattern): FBX032 (HMVECLs, TNFα): 5 | bin (gene expression response pattern): FHL2 (HMVECLs, TNFα): 5 | bin (gene expression response pattern): FLRT3 (HMVECLs, TNFα): 1 | bin (gene expression response pattern): FP236383.10 (HMVECLs, TNFα): 4 | bin (gene expression response pattern): GBP1P1 (HMVECLs, TNFα): 3 | bin (gene expression response pattern): GBP4 (HMVECLs, TNFα): 3 | bin (gene expression response pattern): GFOD1 (HMVECLs, TNFα): 5 | bin (gene expression response pattern): GPR68 (HMVECLs, TNFα): 2 | bin (gene expression response pattern): GPR88 (HMVECLs, TNFα): 3 | bin (gene expression response pattern): GRPEL2 (HMVECLs, TNFα): 5 | bin (gene expression response pattern): HAS3 (HMVECLs, TNFα): 3 | bin (gene expression response pattern): HEY1 (HMVECLs, TNFα): 5 | bin (gene expression response pattern): HMSD (HMVECLs, TNFα): 5 | bin (gene expression response pattern): HRCT1 (HMVECLs, TNFα): 5 | bin (gene expression response pattern): HTR1D (HMVECLs, TNFα): 5 | bin (gene expression response pattern): IBA57-AS1 (HMVECLs, TNFα): 5 | bin (gene expression response pattern): ID1 (HMVECLs, TNFα): 5 | bin (gene expression response pattern): IDO1 (HMVECLs, TNFα): 3 | bin (gene expression response pattern): IL1B (HMVECLs, TNFα): 3 | bin (gene expression response pattern): INPP4B (HMVECLs, TNFα): 5 | bin (gene expression response pattern): JUNB (HMVECLs, TNFα): 5 | bin (gene expression response pattern): KCNJ12 (HMVECLs, TNFα): 1 | bin (gene expression response pattern): KDM7A (HMVECLs, TNFα): 5 | bin (gene expression response pattern): KIAA1211L (HMVECLs, TNFα): 1 | bin (gene expression response pattern): KIT (HMVECLs, TNFα): 5 | bin (gene expression response pattern): KLF15 (HMVECLs, TNFα): 5 | bin (gene expression response pattern): KSR2 (HMVECLs, TNFα): 5 | bin (gene expression response pattern): LINC00677 (HMVECLs, TNFα): 3 | bin (gene expression response pattern): LMCD1 (HMVECLs, TNFα): 5 | bin (gene expression response pattern): LONRF3 (HMVECLs, TNFα): 5 | bin (gene expression response pattern): LRFN1 (HMVECLs, TNFα): 5 | bin (gene expression response pattern): LRFN5 (HMVECLs, TNFα): 2 | bin (gene expression response pattern): LYL1 (HMVECLs, TNFα): 5
